Data on 6 molecules can be found in patent US6667053B1, “D and L etherlipid stereoisomers and liposomes” (Elan Pharmaceuticals, Inc., priority 1996, dated 2003).

Where two headings read alike, the source gives them in different places.

What all share (type): cell-based
The test system of assay [1] is platelets in dog whole blood. Put plainly: Platelet aggregation response in whole blood (impedance aggregometer), dog blood. On the procedure: (§1) The platelet aggregation effect of the liposomes in the whole blood of various mammals was evaluated using a CHRONO-LOG Dual Chamber Whole Blood Aggregometer Model 560, according to the following protocol:
(§2) Venous blood was collected using 3.8% sodium citrate in a Vacutainer. Dilution ratio is 1 to 9 (citrate solution: blood). The effect of D and L etherlipid and liiposmes containing them on aggregation of platelets from rats, dogs, monkeys and humans was tested.
(§3) Immediately following collection the blood was mix by gentle inversion (maintain at room temperature). Prewarm 500 ul saline in disposable plastic cuvettes. Add 500 ul whole blood or PRP. Add disposable siliconized mini stir bar. Warm diluted blood 5 min at 37° C. prior to testing. Add test samples to aggregation chambers and insert impedance probes.
(§4) Platelet aggregation response was determined by increased resistance using an impedance electrode in a platelet suspension. Resistance measurements were taken 6-8 minutes after addition of the test article to 1 ml whole blood or platelet rich plasma (PRP).

For assay [2], the system named is platelets in rat whole blood. Put plainly: Platelet aggregation response in whole blood (impedance aggregometer), rat blood. On the procedure: as §1, §2, §3, §4
In assay [3] the test system is PAF binding sites on dog blood platelets. Put plainly: Platelet aggregation response in dog whole blood with and without CV-6209. The conditions noted are these: PAF alone, concentration 0.05 μM. On the procedure:
as §1, §3, §4
To further investigate the platelet aggregation response triggered by the L-ether lipid in dog whole blood, the effect of a compound (CV-6209) that binds PAF binding sites on dog blood platelets was studied.

In assay [4] the test system is platelets in human whole blood. Put plainly: Platelet aggregation response in whole blood (impedance aggregometer), human blood. As to the method:
as §1, §2, §3, §4

In assay [5] the test system is U-937, a human histiocytic lymphoma cell line. Put plainly: In vitro growth inhibition, SRB assay, U937. The conditions noted are these: read-out: In vitro growth inhibition GI50 (± sd), U937. As to the method:
(§5) The anti-tumor activities of the D and L etherlipid were evaluated against A549, a human non-small cell lung carcinoma cell line; MCF 7, a human breast carcinoma line and MCF 7/adr, multi-drug resistant human breast carcinoma; were obtained from the DCT Tumor Repository (NCI-Frederick Cancer Research Facility, Frederick, Md.). U-937, a human histiocytic lymphoma cell line, was obtained from the American Type Culture Collection. Stock cultures of these human cell lines were maintained in RPMI 1640 tissue culture media (Life Technologies, Gaithersburg, Md.) supplemented with 10% heat inactivated fetal bovine serum (Life Technologies) and 10 mM HEPES (Life Technologies). Cultures were maintained in exponential growth in a humidified incubator with 5% CO2 and were passaged twice weekly. L1210 and L1210/vmdr, murine lymphocytic leukemias, (Yale University School of Medicine). L1210/vmdr, a selected line of L1210, was transfected with a plasmid (pHaMDR1/A) containing the mdr 1 gene.
(§6) The detailed methodology of the SRB assay is described elsewhere (2,3). […] The bound stain was solubilized with 100 ul of 10 mM Tris buffer (Sigma) and the optical density was read spectrophotometrically at 490 nm (Microplate Reader Model 3550-UV, Biorad, Hercules, Calif.). […] Percent growth was calculated as follows: (T−T0)/(C−T0)×100 where (T)=mean optical density of treated wells at a given drug concentration, (T0)=mean optical density of time zero wells, and (C)=mean optical density of control wells, or if T<T0 where cell killing has occurred, then percent cell death can be calculated as follows: (T−T0)/(T0)×100. By varying drug concentration, dose response curves were generated and the GI50 values were calculated. The GI50 values for each experiment were calculated using data obtained from three duplicate wells on two separate plates. The mean GI50 values and standard deviations were then calculated from the GI50's from each independent experiment.

In assay [6] the test system is MCF 7/adr, multi-drug resistant human breast carcinoma. In words: In vitro growth inhibition, SRB assay, MCF7/adr. The conditions noted are these: 72 hrs treatment, read-out: In vitro growth inhibition GI50 (± sd), MCF7/adr. On the procedure: as §5, §6
(Sulforhodamine B stains cellular protein and so reports cell mass.)

For assay [7], the system named is MCF 7, a human breast carcinoma line. In words: In vitro growth inhibition, SRB assay, MCF7. The settings on record: 72 hrs treatment, read-out: In vitro growth inhibition GI50 (± sd), MCF7. On the procedure:
as §5, §6

In assay [8] the test system is L1210 murine lymphocytic leukemia. In words: In vitro growth inhibition, SRB assay, L1210. The conditions noted are these: read-out: In vitro growth inhibition GI50 (± sd), L1210. On the procedure: as §5, §6
The subject of assay [9] is A549, a human non-small cell lung carcinoma cell line. Put plainly: In vitro growth inhibition, Sulforhodamine B (SRB) assay, A549. The settings on record: read-out: In vitro growth inhibition GI50 (± sd), A549. As to the method:
as §5, §6

The subject of assay [10] is L1210/vmdr murine lymphocytic leukemia (mdr 1 transfected). In words: In vitro growth inhibition, SRB assay, L1210/vmdr. The settings on record: for GI50: 72 hrs treatment, read-out: In vitro growth inhibition GI50 (± sd), L1210/vmdr. On the procedure:
as §5
(§7) The detailed methodology of the SRB assay is described elsewhere (2,3). Briefly, 96-well microtiter plates were inoculated with 100 ul of the above cell lines at optimal cell densities, 3500-15,000 cells/well, in medium (RPMI 1640 with L-glutamine (Mediatech, Herndon, Va.)) supplemented with 10% fetal bovine serum (Life Technologies) for all cell lines. The plates were then incubated for 24 hours at 37° C., 100% humidity, and 5% CO2. After the 24 hour incubation, 100 μl of medium was added to the designated time zero plates, then the plates containing adherent cell lines were acid fixed with 50 ul of 50% trichloroacetic acid (wt/vol) (Sigma, St. Louis, Mo.) and refrigerated at 4° C. for 1 hour (the suspension cell lines were acid fixed with 80% trichloroacetic acid). The supernatant was discarded and the plates were rinsed 6 times with water and air dried. […] The bound stain was solubilized with 100 ul of 10 mM Tris buffer (Sigma) and the optical density was read spectrophotometrically at 490 nm (Microplate Reader Model 3550-UV, Biorad, Hercules, Calif.). […] Percent growth was calculated as follows: (T−T0)/(C−T0)×100 where (T)=mean optical density of treated wells at a given drug concentration, (T0)=mean optical density of time zero wells, and (C)=mean optical density of control wells, or if T<T0 where cell killing has occurred, then percent cell death can be calculated as follows: (T−T0)/(T0)×100. By varying drug concentration, dose response curves were generated and the GI50 values were calculated. The GI50 values for each experiment were calculated using data obtained from three duplicate wells on two separate plates. The mean GI50 values and standard deviations were then calculated from the GI50's from each independent experiment.

The next assay deals with Lewis Lung. In words: In vitro growth inhibition, SRB assay, Lewis Lung. The conditions noted are these: 72 hrs treatment, read-out: In vitro growth inhibition GI50 (± sd), Lewis Lung. On the procedure:
as §7, with “dried. Then the test compound was added (100 ul aliquots) to the remaining (non-fixed) plates at 2 times the predetermined highest concentration and serially diluted across the plates. Growth control wells received an additional 100 ul of medium.” for “dried.”

[11] abbreviates: Homo sapiens, U-937, 72 hrs treatment.
Setting [12] is: Mus musculus, L1210, 72 hrs treatment.
The mark [13] stands for this setting: Homo sapiens, A549, 72 hrs treatment.

In the case of “1-O-2-acetyl-sn-glycero-3-phosphocholine [PAF]”, the results for the “Dog Blood Response” value in assay [1] (concentration 0.05 μM) and in assay [3] were 14.8 Ω and 23.5 Ω, respectively. In addition, the “Rat Blood Response” value in [2] (concentration 0.05 μM) was 0 Ω. For the same molecule, in assay [4] (concentration 0.05 μM), the “Human Blood Response” value was 6.0 Ω.
`CCCCCCCCCCCCCCCCCCOC[C@H](COP(=O)([O-])OCC[N+](C)(C)C)OC` [L-EL, 1-O-octadecyl-2-O-methyl-sn-glycero-3-phosphocholine]: the GI50 in assay [5] (setting [11]) worked out at 1.53 ± 0.42 µM; in assay [6] (Homo sapiens, NCI/ADR-RES), 27.9 ± 2.1 µM; in assay [7] (Homo sapiens, MCF7a), 18.6 ± 4.57 µM; in assay [8] (setting [12]) it was 4.77 ± 0.41 µM; in assay [9] (setting [13]) it was 9.07 ± 0.39 µM; in [10] (Mus musculus) it was 8.77 ± 1.47 µM. Also, in the assay on Lewis Lung (Lewis lung carcinoma), the GI50 is 29.1 ± 2.05 µM.
Take `CCCCCCCCCCCCCCCCCCOCC(COP(=O)([O-])OCC[N+](C)(C)C)OC` (racemic) [rac-EL]: the GI50 in assay [5] (72 hrs treatment) is 1.5 ± 0.22 µM; in [6] it was 27.8 ± 0.3 µM; in assay [7] it was 15.9 ± 6.41 µM; in assay [8] (72 hrs treatment), 4.18 ± 1.38 µM; in [9] (72 hrs treatment), 8.36 ± 0.67 µM; in assay [10] it was 6.09 ± 2.15 µM. Further, the GI50 in the assay on Lewis Lung is 27.1 ± 1.98 µM.
Turning to `CCCCCCCCCCCCCCCCCCOC[C@@H](COP(=O)([O-])OCC[N+](C)(C)C)OC` [D-EL, 3-O-octadecyl-2-O-methyl-sn-glycero-1-phosphocholine], the GI50 in [5] (setting [11]) came out at 1.41 ± 0.29 µM; in [6] (Homo sapiens, NCI/ADR-RES), 25.1 ± 1.69 µM; in assay [7] (Homo sapiens, MCF7a), 14.6 ± 5.92 µM; in assay [8] (setting [12]) it was 3.6 ± 1.59 µM; in assay [9] (setting [13]), 7.96 ± 0.57 µM; in assay [10] (Mus musculus), 4.87 ± 0.77 µM. Besides, the GI50 with Lewis Lung (Lewis lung carcinoma) is 25.4 ± 0.95 µM. The “activity against L1210/vmdr compared to L-EL and the racemate” value in assay [10] (72 hrs) is on record as “slight but statistically significant greater activity”.
On to collagen, for which, in [1] (concentration 20 μg/μL), the “Dog Blood Response” value is 12 Ω. The “Rat Blood Response” value in assay [2] (concentration 20 μg/μL) is 34.1 Ω. Besides, the “Human Blood Response” value in [4] (concentration 20) is 36 Ω.
For the molecule `Nc1ncnc2c1ncn2[C@@H]1O[C@H](COP(=O)(O)OP(=O)(O)O)[C@@H](O)[C@H]1O` [ADP], in assay [1] (concentration 20 μM), the “Dog Blood Response” value was 4.0 Ω. In addition, the “Rat Blood Response” value in assay [2] (concentration 20 μM) is reported as 2.0 Ω. The “Human Blood Response” value in assay [4] (concentration 20 μM) is listed as 6.3 Ω.
